{"source": "paper PMC12257544", "about": "“Fluorescent Isostere (Fluostere) of the Carboxylate: Design of hDHODH Fluorescent Inhibitors as Proof of Concept” (Journal of Medicinal Chemistry, 2025)", "key": {"[1]": {"test_system": "THP1 cells", "test": "Annexin V apoptosis assay", "type": "cell-based, human", "protocol": "After 3 days of culture, the apoptotic assay was performed using the Annexin V-FITC Kit (Miltenyi Biotec, Italy), according to the manufacturer's instructions. The apoptotic cells were acquired on […] and analyzed using Kaluza software version 2.1 (Beckman Coulter, Fullerton, CA)."}, "[2]": {"test_system": "A549 cells", "test": "Cell viability assay (CellTiter-Glo)", "type": "cell-based", "settings": "Homo sapiens, A549, 72 h; 3 days of culture; read-out: Viability EC50 A549 (C.L. 95 %)", "protocol": "(§1) After 3 days of culture, the percentage of live cells was determined using the CellTiter-Glo Luminescent assay (Promega, Milan, Italy), following the manufacturer’s instructions."}, "[3]": {"test_system": "K562 cells", "test": "Cell viability assay (CellTiter-Glo)", "type": "cell-based", "settings": "Homo sapiens, K562, 72 h; 3 days of culture; read-out: Viability EC50 K562 (C.L. 95 %)", "protocol": "as §1"}, "[4]": {"test": "Cytotoxicity assay (CellTiter-Glo)", "type": "cell-based", "settings": "human, MRC-5 cells; 72 h incubation; read-out: MRC-5 CC50 (C.L. 95 %)", "protocol": "(§2) After 72 h of incubation, the number of viable cells was determined using the CellTiter-Glo Luminescent assay (Promega, Milan, Italy). The cytotoxicity of the tested compounds was expressed as cytotoxic concentration (CC50)."}, "[5]": {"test_system": "hCoV-OC43", "test": "Antiviral focus-forming reduction assay (FFRA) in HCT-8 cells", "type": "cell-based, human coronavirus OC43", "protocol": "After virus adsorption (2 h at 33 °C), the infected cell cultures were incubated in medium containing the corresponding compounds plus 1% (w/v) methylcellulose (Merck) and 1% (v/v) FBS. […] Viral foci were microscopically counted, and the mean plaque counts for each drug concentration was converted in viral titer (PFU/mL)."}, "[6]": {"test": "Cytotoxicity assay (CellTiter-Glo)", "type": "cell-based, human", "settings": "human, HCT-8 cells (uninfected), uninfected HCT-8 cells", "protocol": "as §2"}, "[7]": {"test_system": "HCT-8 cells", "test": "Cytotoxicity assay (CellTiter-Glo)", "type": "cell-based, human", "settings": "uninfected HCT-8 cells, 72 h", "protocol": "as §2"}, "[8]": {"test": "Photophysical characterization (absorption, emission, QY, lifetime)", "type": "physicochemical", "protocol": "(§3) UV–Vis absorption spectra were recorded on a Cary60 spectrometer. Photoemission spectra, luminescence lifetimes, and quantum yields were acquired with a HORIBA Jobin Yvon IBH Fluorolog-TCSPC spectrofluorometer equipped with a Quanta-φ integrating sphere. […] Emission-decay data were collected in 2048 channels to 10000 counts in the peak channel. IRF was measures using colloidal silica suspension in H2O to scatter light. Data were analyzed with the software DAS6 (TCSPC decay-analysis software) using a nonlinear least-squares method to fit of the decay to a sum of exponentials. The value of χ^2, residuals and the autocorrelation function (Durbin-Watson parameter) were used to determine the quality of the fit. For measurements in the presence of hDHODH, 11a was incubated, at 1 μM concentration in TRIS Buffer 0.1 mM (pH 8) with 0.1% DMSO, alone or with different concentrations of recombinant protein ranging from 31.5 to 504 nM concentration. After 5 min incubation UV–Vis absorption spectra were recorded on a Cary60 spectrophotometer and photoemission spectra were acquired with a HORIBA Jobin Yvon IBH Fluorolog-TCSPC spectrofluorometer with excitation λ of 366 nm and maximum of emission at 500 nm; a.u. data were analyzed with GraphPad Prism using One Site – Specific Binding equation."}, "[9]": {"biological_target": "hDHODH (Homo sapiens, UniProt Q02127)", "sequence (Q02127 whole entry)": "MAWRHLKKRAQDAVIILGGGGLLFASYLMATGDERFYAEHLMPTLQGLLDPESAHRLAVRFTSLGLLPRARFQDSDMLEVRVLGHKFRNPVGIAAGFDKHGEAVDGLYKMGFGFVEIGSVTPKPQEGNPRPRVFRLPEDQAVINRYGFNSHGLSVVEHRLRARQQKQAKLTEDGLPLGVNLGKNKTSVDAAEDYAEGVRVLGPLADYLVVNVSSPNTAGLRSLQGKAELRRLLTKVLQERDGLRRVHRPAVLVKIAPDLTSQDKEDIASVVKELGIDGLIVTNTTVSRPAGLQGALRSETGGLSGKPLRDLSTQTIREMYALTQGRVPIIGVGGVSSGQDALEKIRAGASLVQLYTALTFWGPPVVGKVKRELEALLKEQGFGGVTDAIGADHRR", "test": "Fluorescence emission of the compound in the presence of recombinant hDHODH", "type": "binding", "settings": "compound 1 μM, hDHODH 31.5 to 504 nM, TRIS pH 8", "protocol": "In particular, we observed an increase in fluorescence intensity in correlation with the growing amount of protein, as shown in Figure .\nas §3, with “For measurements in the presence of hDHODH, 11a was incubated, at 1 μM concentration in TRIS Buffer 0.1 mM (pH 8) with 0.1% DMSO, alone or with different concentrations of recombinant protein ranging from 31.5 to 504 nM concentration.” left out"}, "[10]": {"test_system": "unrelated GST-conjugated-protein", "test": "Fluorescence control with an unrelated GST-conjugated protein", "type": "binding", "settings": "fixed amount of compound, increasing protein concentration", "protocol": "Because the isolated hDHODH used for the previous measurements, and in inhibition enzymatic assay, is the GST-tagged protein, we decided to confirm that the observed fluorescence enhancement resulted from specific binding of inhibitor 11a to the target protein and not from nonspecific interactions with the GST portion.\nApoptosis test rescue with uridine:\nFigure S4. A) Analysis of the apoptotic rate induced by compound 11a, on THP-1 cell line (n = 3) with or without exogenous uridine at 100 µM. Compounds were utilized at 1 µM; apoptotic was evaluated after 3 days of treatment. DMSO: dimethyl sulfoxide. Cpd: compound. Ur: uridine. Statistical significance: Student’s t test: **p<0.01. B) Representative Annexin V-FITC/PI flow cytometry dot plots of THP-1 cells after 3 days of treatment in presence of vehicle (left), compound 11a (middle), compound 11a and uridine 100 µM. Data are representative of 3 independent experiments.\nFigure S5. Fluorescence-based analysis of the potential contribution of GST-tag to the emission restoration of compound 11a. […]\nincreasing concentration versus a fixed amount of compound 11a. […]\nshow protein-dependent fluorescence restoration. […]"}, "[11]": {"test_system": "THP-1 cells", "test": "Co-localization competition assay with Bay2402234 (Manders coefficient)", "type": "cell-based, human", "settings": "10 μM each, 3 h, Manders coefficient, Welch's t test p = 0.0024", "protocol": "Colocalization between hDHODH inhibitors and mitochondria was quantified using Manders coefficient (Figure D).\nTHP-1 cells were incubated for 3 h with hDHODHi 11a and Bay240223410 at 10 μM, either alone or in combination. After incubation, the cells were washed and stained with Red-MitoTracker CMXRos (Thermo Fisher, Carlsbad, CA, USA) at a concentration of 100 nM for 30 min at 37 °C. Cells were imaged with a Leica TCS SP8 confocal system (Leica Microsystems) equipped with 4 excitation lasers (405 Diode, Argon, DPSS561, HeNe633). Images were acquired with a HCX PL APO 63×/1.4 NA oil-immersion objective with a resolution of 81 nm × 81 nm and were processed and analyzed with ImageJ software (Rasband, W.S., U.S. National Institutes of Health, Bethesda, […]). In particular, colocalization was analyzed with JACoP plugin and Manders’ coefficient was calculated"}, "[12]": {"biological_target": "hDHODH enzyme GST-tagged (Homo sapiens, UniProt Q02127)", "sequence (Q02127 whole entry)": "as above", "test": "hDHODH inhibition assay (DCIP reduction)"}}, "note": "Values joined by “and” are separate entries in the source; they are usually repeats but may differ in a detail not shown here. Equal values may be shown once. Read-outs that look alike come from different tables or passages of the source."}
{"smiles": "Oc1nn2ccccc2c1/C=C/c1c(F)c(F)c(-c2ccccc2)c(F)c1F", "note": "[Compound 11a, (E)-3-(2-(2,3,5,6-Tetrafluoro-[1,1’-biphenyl]-4-yl)vinyl)pyrazolo[1,5-a]pyridin-2-ol]", "values": [{"measurement": "EC50", "setting": "[1]; Homo sapiens, THP-1, 72 h, 3 days of culture, Annexin V-FITC, read-out: Apoptosis EC50 THP1 (C.L. 95 %)", "result": 693, "unit": "nM"}, {"measurement": "antileukemic activity relative to MEDS433", "setting": "[1]; lower than MEDS433, THP1 apoptosis", "result": "~10", "unit": "fold"}, {"measurement": "pro-apoptotic activity after adding exogenous uridine", "setting": "[1]; uridine 100 μM, compound 1 µM, THP-1, 3 days", "result": "completely reversed"}, {"measurement": "EC50", "setting": "[2]", "result": 423, "unit": "nM"}, {"measurement": "EC50", "setting": "[3]", "result": 114, "unit": "nM"}, {"measurement": "CC50 at 72 h", "setting": "[4]", "result": 7000, "unit": "nM"}, {"measurement": "EC50", "setting": "[5]; Betacoronavirus 1, OC43, HCT-8, 72 h, read-out: EC50, concentration inhibiting 50% of virus replication, hCoV-OC43, FFRA in HCT-8 cells, 72 h p.i., full treatment", "result": "2300 ± 500", "unit": "nM"}, {"measurement": "EC90", "setting": "[5]; Betacoronavirus 1, OC43, HCT-8, 72 h, read-out: EC90, concentration inhibiting 90% of virus replication", "result": "23300 ± 400", "unit": "nM"}, {"measurement": "SI, Selectivity Index (ratio of CC50 to EC50)", "setting": "[5]; HCT-8 CC50 / hCoV-OC43 EC50", "result": 131}, {"measurement": "CC50 at 72 h", "setting": "[6]", "result": "301000 ± 9000", "unit": "nM"}, {"measurement": "CC50", "setting": "[7]", "result": "301000 ± 8980", "unit": "nM"}, {"measurement": "emission in PBS solution", "setting": "[8]; PBS, polar protic solvent", "result": "completely quenched"}, {"measurement": "emission in TRIS buffer", "setting": "[8]; TRIS buffer (pH 8), conditions of the enzymatic assay, no protein", "result": "absence of emission"}, {"measurement": "Lifetime", "setting": "[8]; in ACN", "result": "<1", "unit": "ns"}, {"measurement": "QY (luminescence quantum yield)", "setting": "[8]; in ACN", "result": 0.12}, {"measurement": "Stokes shift", "setting": "[8]; in ACN", "result": 4174, "unit": "cm^–1"}, {"measurement": "λabs", "setting": "[8]; in ACN", "result": 442, "unit": "nm"}, {"measurement": "λem", "setting": "[8]; in ACN", "result": "535 nm and 542 nm"}, {"measurement": "fluorescence in the presence of the recombinant protein", "setting": "[9]", "result": "restoration of fluorescence"}, {"measurement": "fluorescence in the presence of an unrelated GST-conjugated protein", "setting": "[10]", "result": "no restoration of fluorescence"}, {"measurement": "colocalization signal with the mitochondria in the presence of Bay2402234", "setting": "[11]", "result": "decreased slightly but statistically significantly"}, {"measurement": "IC50", "setting": "[12]", "result": 170, "unit": "nM"}]}
